# Test results from PubChem BioAssay AID2060620 (Molecular Pharmacology Branch, DTP, NCI, 2025).
# Where “and” joins values, the source holds several entries; their conditions need not be identical. Identical values can stand only once.
# Tested on: 328373-195-R-J1-PDC complex spheroids, viability % test/control
# Assay: Anticancer human tumor 328373-195-R-J1-PDC patient-derived head and neck squamous carcinoma cell line growth inhibition [CLK]
# Settings: for viability, T/C: stronger effect = lower value
# In short: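 Patient-derived tumor cells grown as complex spheroids with HUVEC endothelial cells and mesenchymal stem cells, treated with drug combinations. Concentrations descend in half-log steps from near clinical Cmax, or from 10 microM if Cmax unknown.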
# [1] = curve of first compound, second compound 0.0316 µM
# [2] = curve of first compound, second compound 0.1 µM
# [3] = curve of first compound, second compound 0.316 µM
# [4] = curve of first compound, second compound 1 µM
# [5] = curve of first compound, second compound 3.16 µM
# [6] = curve of first compound, second compound 10 µM
# [7] = second compound 0.0316 µM, first compound 0.0316 µM
# [8] = second compound 0.0316 µM, first compound 0.1 µM
# [9] = second compound 0.0316 µM, first compound 0.316 µM
# [10] = second compound 0.0316 µM, first compound 1 µM
# [11] = second compound 0.0316 µM, first compound 3.16 µM
# [12] = second compound 0.0316 µM, first compound 10 µM
# [13] = second compound 0.1 µM, first compound 0.0316 µM
# [14] = second compound 0.1 µM, first compound 0.1 µM
# [15] = second compound 0.1 µM, first compound 0.316 µM
# [16] = second compound 0.1 µM, first compound 1 µM
# [17] = second compound 0.1 µM, first compound 3.16 µM
# [18] = second compound 0.1 µM, first compound 10 µM
# [19] = second compound 0.316 µM, first compound 0.0316 µM
# [20] = second compound 0.316 µM, first compound 0.1 µM
# [21] = second compound 0.316 µM, first compound 0.316 µM
# [22] = second compound 0.316 µM, first compound 1 µM
# [23] = second compound 0.316 µM, first compound 3.16 µM
# [24] = second compound 0.316 µM, first compound 10 µM
# [25] = second compound 1 µM, first compound 0.0316 µM
# [26] = second compound 1 µM, first compound 0.1 µM
# [27] = second compound 1 µM, first compound 0.316 µM
# [28] = second compound 1 µM, first compound 1 µM
# [29] = second compound 1 µM, first compound 3.16 µM
# [30] = second compound 1 µM, first compound 10 µM
# [31] = second compound 3.16 µM, first compound 0.0316 µM
# [32] = second compound 3.16 µM, first compound 0.1 µM
# [33] = second compound 3.16 µM, first compound 0.316 µM
# [34] = second compound 3.16 µM, first compound 1 µM
# [35] = second compound 3.16 µM, first compound 3.16 µM
# [36] = second compound 3.16 µM, first compound 10 µM
# [37] = second compound 10 µM, first compound 0.0316 µM
# [38] = second compound 10 µM, first compound 0.1 µM
# [39] = second compound 10 µM, first compound 0.316 µM
# [40] = second compound 10 µM, first compound 1 µM
# [41] = second compound 10 µM, first compound 3.16 µM
# [42] = second compound 10 µM, first compound 10 µM
# 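Also: spheroids exposed to the agents for 7 days.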
structure (smiles),measurement,setting,value
Nc1ccn(C2OC(CO)C(O)C2(F)F)c(=O)n1 (centres undefined) + CN1CCN(c2cc(C(=O)Nc3cc4cc(-c5cnn(C)c5)ccc4cn3)ccn2)CC1,IC50,[1],< 31.6 nM
same,IC50,[2],< 31.6 nM
same,IC50,[3],< 31.6 nM
same,IC50,[4],< 31.6 nM
same,IC50,[5],< 31.6 nM
same,IC50,[6],< 31.6 nM
same,"viability, T/C",[7],3.79%
same,"viability, T/C",[8],2.43%
same,"viability, T/C",[9],4.26%
same,"viability, T/C",[10],2.86%
same,"viability, T/C",[11],2.91%
same,"viability, T/C",[12],3.08%
same,"viability, T/C",[13],4.42%
same,"viability, T/C",[14],3.79%
same,"viability, T/C",[15],4.8%
same,"viability, T/C",[16],3.59%
same,"viability, T/C",[17],3.13%
same,"viability, T/C",[18],4.21%
same,"viability, T/C",[19],4.28%
same,"viability, T/C",[20],2.41%
same,"viability, T/C",[21],3.74%
same,"viability, T/C",[22],1.82%
same,"viability, T/C",[23],1.62%
same,"viability, T/C",[24],5.1%
same,"viability, T/C",[25],0.09%
same,"viability, T/C",[26],1.02%
same,"viability, T/C",[27],2.83%
same,"viability, T/C",[28],0.09%
same,"viability, T/C",[29],2.43%
same,"viability, T/C",[30],0.07%
same,"viability, T/C",[31],1.17%
same,"viability, T/C",[32],1.23%
same,"viability, T/C",[33],0.12%
same,"viability, T/C",[34],1.22%
same,"viability, T/C",[35],0.16%
same,"viability, T/C",[36],0.38%
same,"viability, T/C",[37],2.37%
same,"viability, T/C",[38],0.17%
same,"viability, T/C",[39],0.7%
same,"viability, T/C",[40],0.17%
same,"viability, T/C",[41],1.04%
same,"viability, T/C",[42],0.35%
NC(=O)C(=Cn1cnc(-c2cc(C(F)(F)F)cc(C(F)(F)F)c2)n1)c1cncnc1,"viability, T/C",compound 0.00949 µM,76.3% and 71.8%
same,"viability, T/C",compound 0.03 µM,38.3% and 37.8%
same,"viability, T/C",compound 0.0949 µM,2.22% and 0.66%
same,"viability, T/C",compound 0.3 µM,1.05% and 0.37%
same,"viability, T/C",compound 0.949 µM,0.16% and 0.11%
same,"viability, T/C",compound 3 µM,1.51% and 0.06%
same,IC50,curve of compound,21.1 nM and 19.8 nM
CCCS(=O)(=O)Nc1ccc(F)c(C(=O)c2c[nH]c3ncc(-c4ccc(Cl)cc4)cc23)c1F,"viability, T/C",compound 0.0316 µM,99.5% and 99.4%
same,"viability, T/C",compound 0.1 µM,91.2% and 92.6%
same,"viability, T/C",compound 0.316 µM,92.8% and 95.1%
same,"viability, T/C",compound 1 µM,91.2% and 83.6%
same,"viability, T/C",compound 3.16 µM,92.6% and 94.8%
same,"viability, T/C",compound 10 µM,82.3% and 109%
same,IC50,curve of compound,> 10000 nM
Nc1ccccc1NC(=O)c1ccc(CNC(=O)OCc2cccnc2)cc1 + CN1CCN(c2cc(C(=O)Nc3cc4cc(-c5cnn(C)c5)ccc4cn3)ccn2)CC1,IC50,[1],706 nM
same,IC50,[2],641 nM
same,IC50,[3],< 31.6 nM
same,IC50,[4],< 31.6 nM
same,IC50,[5],< 31.6 nM
same,IC50,[6],< 31.6 nM
same,"viability, T/C",[7],90.1%
same,"viability, T/C",[8],79.9%
same,"viability, T/C",[9],63.5%
same,"viability, T/C",[10],38.3%
same,"viability, T/C",[11],34.1%
same,"viability, T/C",[12],11.1%
same,"viability, T/C",[13],74.5%
same,"viability, T/C",[14],80%
same,"viability, T/C",[15],55.4%
same,"viability, T/C",[16],40.8%
same,"viability, T/C",[17],30%
same,"viability, T/C",[18],7.09%
same,"viability, T/C",[19],26.5%
same,"viability, T/C",[20],32.9%
same,"viability, T/C",[21],22.5%
same,"viability, T/C",[22],16.6%
same,"viability, T/C",[23],8.58%
same,"viability, T/C",[24],1.38%
same,"viability, T/C",[25],0.23%
same,"viability, T/C",[26],1.09%
same,"viability, T/C",[27],0.16%
same,"viability, T/C",[28],0.08%
same,"viability, T/C",[29],1.1%
same,"viability, T/C",[30],2.52%
same,"viability, T/C",[31],0.07%
same,"viability, T/C",[32],0.75%
same,"viability, T/C",[33],1.64%
same,"viability, T/C",[34],0.06%
same,"viability, T/C",[35],0.07%
same,"viability, T/C",[36],0.09%
same,"viability, T/C",[37],0.04%
same,"viability, T/C",[38],1.05%
same,"viability, T/C",[39],0.15%
same,"viability, T/C",[40],0.1%
same,"viability, T/C",[41],2.24%
same,"viability, T/C",[42],0.16%
CNC(=O)c1ccc(Nc2nc(OC3CCCC3)c3c(-c4ccc5nc(C)oc5c4)c[nH]c3n2)c(OC)c1,"viability, T/C",compound 0.1 µM,12.1% [middle of 12 runs]
same,"viability, T/C",compound 0.316 µM,10.1% [middle of 11 runs]
same,"viability, T/C",compound 1 µM,9.35% [middle of 12 runs]
same,"viability, T/C",compound 3.16 µM,9.17% [middle of 12 runs]
same,"viability, T/C",compound 10 µM,11.8% [middle of 12 runs]
O=c1[nH]cc(F)c(=O)[nH]1,"viability, T/C",compound 0.0316 µM,54% and 64.5%
same,"viability, T/C",compound 0.1 µM,14.5% and 17.4%
same,"viability, T/C",compound 0.316 µM,11.9% and 9.36%
same,"viability, T/C",compound 1 µM,6.67% and 7.09%
same,"viability, T/C",compound 3.16 µM,8.84% and 8.77%
same,"viability, T/C",compound 10 µM,14.9% and 15.6%
same,IC50,curve of compound,35.6 nM and 44.9 nM
C=C(F)C(=O)N1CCN(c2nc(OCC3CCCN3C)nc3c2CCN(c2cccc4cccc(Cl)c24)C3)CC1CC#N (centres undefined),"viability, T/C",compound 0.0316 µM,94.1% and 94.7%
same,"viability, T/C",compound 0.1 µM,89.7% and 93.1%
same,"viability, T/C",compound 0.316 µM,77.7% and 114%
same,"viability, T/C",compound 1 µM,90.5% and 84.6%
same,"viability, T/C",compound 3.16 µM,53.7% and 59.2%
same,"viability, T/C",compound 10 µM,0.17% and 3%
same,IC50,curve of compound,3420 nM and 3750 nM
CCN1CCN(Cc2ccc(Nc3ncc(F)c(-c4cc(F)c5nc(C)n(C(C)C)c5c4)n3)nc2)CC1,"viability, T/C",compound 0.00316 µM,101% and 89.8%
same,"viability, T/C",compound 0.01 µM,77.4% and 78.7%
same,"viability, T/C",compound 0.0316 µM,82.7% and 83.1%
same,"viability, T/C",compound 0.1 µM,77.4% and 78.6%
same,"viability, T/C",compound 0.316 µM,64.9% and 69.7%
same,"viability, T/C",compound 1 µM,59.8% and 52.3%
same,IC50,curve of compound,> 1000 nM
